The values below come from the RepoRT retention time repository (doi:10.1021/acs.analchem.2c02893).

Molecules are shown by their SMILES.

The series can be described thus: RP, Thermo Scientific Acclaim RSLC 120 C18, 100 × 2.1 mm, 2.2 µm, 30 °C, 0.2 mL/min, estimated dead time 1.1 min; A: 90% water + 10% methanol + 0.01% formic acid + 5 mM ammonium formate, pH 3.61; B: methanol + 0.01% formic acid + 5 mM ammonium formate, pH 3.61; gradient (min/%B) 0/1 1/1 2/39 13/99.9 15/99.9 15.1/1 20.1/1. Conditions: stereoisomer not certain.
As for `CCCCCCCCCCCCCCCC[N+](C)(C)Cc1ccccc1` [Benzyldimethylhexadecylammonium], the LC retention time is 13.1 min. Turning to `O=C1c2ccccc2C(=O)C1C(=O)C(c1ccccc1)c1ccc(Cl)cc1` (stereo unspecified) [Chlorophacinone], the LC retention time was 9.74 min.

Take `CC1(C)C(C=CC(=O)OC(C(F)(F)F)C(F)(F)F)C1C(=O)OC(C#N)c1cccc(Oc2ccccc2)c1` (stereo unspecified) [Acrinathrin]: the LC retention time is 9.17 min.

On to `Clc1ccc(C(OCCN2CCCCC2)c2ccccc2)cc1` (stereo unspecified) [Cloperastine], for which the LC retention time is 8.46 min.

With `CC(=O)Oc1c(C)cc(OCC(O)CNC(C)C)c(C)c1C` (stereo unspecified) [Metipranolol], the LC retention time is 6.28 min.

Consider `CN(C)CCCn1c2c(c3ccccc31)CCCCCC2` [Iprindol], for which the LC retention time is 9.26 min.

Take `CCN(CC)C(=O)C1(c2ccccc2)CC1CN` (stereo unspecified) [Milnacipran]: the LC retention time was 5.73 min. Take `COP(=S)(OC)Oc1ccc(Sc2ccc(OP(=S)(OC)OC)cc2)cc1` [Temephos]: the LC retention time was 12.4 min. Regarding `Nc1nc2c(ncn2CCC(CO)CO)c(=O)[nH]1` [Penciclovir], the LC retention time was 2.98 min.

On to `CC(C)N(C(=O)C(=O)O)c1ccccc1` [Propachlor-OXA], for which the LC retention time is 5.13 min. The figure for `CC(Cc1ccc(C(C)C(=O)O)cc1)C(=O)O` (stereo unspecified) [Ibuprofen-Carboxy] is 6.99 min; for `CCCCCOC(=O)Nc1nc(=O)n(C2OC(C)C(O)C2O)cc1F` (stereo unspecified) [Capecitabin] it is 7.59 min. Regarding `CCN(CC)CC(C)(C)COC(=O)c1ccc(N)cc1` [Dimethocain], the LC retention time is 4.24 min.

Regarding `C#CCNC(C)Cc1ccccc1` (stereo unspecified) [Deprenyl-Nor], the LC retention time was 4.66 min. With `CC=CC(=O)Oc1c(C(C)CCCCCC)cc([N+](=O)[O-])cc1[N+](=O)[O-]` (stereo unspecified) [Dinocap], the LC retention time is 13.1 min. As for `CON(C)C(=O)Nc1ccc(Cl)cc1` [Monolinuron], the LC retention time is 7.76 min. Consider `Cc1ccc(C(=O)C(C)N2CCCC2)cc1` (stereo unspecified) [MePPP (4-4-Methyl-pyrrolidinopropiophenone)], for which the LC retention time was 4.76 min.

`CC(=O)Oc1ccc2c3c1OC1C(OC(C)=O)C=CC4C(C2)N(C)CCC341` (stereo unspecified) [Heroin]: the LC retention time is 4.63 min.

On to `C[N+]1(C)C2CC(OC(=O)C(CO)c3ccccc3)CC1C1OC12` (stereo unspecified) [Scopolamine-Methyl], for which the LC retention time is 3.88 min. On to `CCCOc1ccc(S(=O)(=O)N2CCN(CC)CC2)cc1-c1nc(=S)c2c([nH]1)c(CCC)nn2C` [Propoxyphenyl Thiohomosidenafil], for which the LC retention time is 10.5 min. The figure for `CC(C)OC(=O)C(O)(c1ccc(Br)cc1)c1ccc(Br)cc1` [Bromopropylate] is 12.5 min.

On to `COc1ccc(CCN2CCC(Nc3nc4ccccc4n3Cc3ccc(F)cc3)CC2)cc1` [Astemizole], for which the LC retention time is 8.03 min. Regarding `O=C(O)Cn1c(=O)sc2cccc(Cl)c21` [Benazolin], the LC retention time is 5.58 min. The figure for `CNCC12CCC(c3ccccc31)c1ccccc12` [Benzoctamine] is 6.52 min; for `COc1ccc(C(=O)c2c(C)n(CCN3CCOCC3)c3ccccc23)cc1` [WIN-48-098] it is 9.55 min; for `CCC(CO)NC(=O)C1C=C2c3cccc4[nH]cc(c34)CC2N(C)C1` (stereo unspecified) [Ergometrine-Methyl] it is 4.34 min. Next, `CC12CCC(=O)C=C1CCC1C2C(O)CC2(C=O)C(C(=O)CO)CCC12` (stereo unspecified) [Aldosterone]: 7.78 min. For `O=C1NCC(=O)N2C1Cc1c([nH]c3ccccc13)C2c1ccc2c(c1)OCO2` (stereo unspecified) [Tadalafil-Nor], the LC retention time is 7.99 min. On to `O=S(=O)(c1ccc(Cl)cc1)c1cc(Cl)c(Cl)cc1Cl` [Tetradifon], for which the LC retention time was 12.2 min. Next, `CCC(CO)NCCNC(CC)CO` (stereo unspecified) [Ethambutol]: 1.93 min; `S=c1[nH]c2ccccc2s1` [Benzothiazole-Mercapto]: 6.89 min. The figure for `Nc1c2c(nc3ccccc13)CCCC2` [Tacrine] is 4.77 min; for `CNCCCC(C#N)(c1ccc(OC)c(OC)c1)C(C)C` (stereo unspecified) [D617 (met. of verapamil)] it is 6.14 min; for `Cn1c([N+](=O)[O-])cnc1COC(N)=O` [Ronidazole] it is 3.55 min.

`CCCCCCCCCCCCCC(=O)NCCC[N+](C)(C)CCCS(=O)(=O)O` [Amidosulfobetaine-14]: the LC retention time was 15 min.

Take `COc1cc(NS(=O)(=O)c2ccc(N)cc2)nc(OC)n1` [Sulfadimethoxine]: the LC retention time was 5.6 min.

Take `CC(=O)Nc1ccc(S(=O)(=O)Nc2ncccn2)cc1` [Sulfadiazine-N4-Acetyl]: the LC retention time was 4.11 min. Turning to `Cc1ncc(CSSCc2cnc(C)c(O)c2CO)c(CO)c1O` [Pyritinol], the LC retention time is 5.54 min.

Take `CC(O)(CS(=O)(=O)c1ccc(F)cc1)C(=O)Nc1ccc(C#N)c(C(F)(F)F)c1` (stereo unspecified) [Bicalutamide]: the LC retention time was 8.71 min. As for `CC(Cc1ccccc1)NCCn1cnc2c1c(=O)n(C)c(=O)n2C` (stereo unspecified) [Fenethylline], the LC retention time was 5.06 min. As for `COP(=S)(OC)SCn1nnc2ccccc2c1=O` [Azinphos-methyl (Guthion)], the LC retention time was 8.89 min.

With `CN=C(NC)NCc1ccccc1` [Bethanidine], the LC retention time was 3.97 min. For the compound `NC(=S)c1c(Cl)cccc1Cl` [Chlorothiamide], the LC retention time is 5.69 min. As for `COC(=O)c1ccccc1S(=O)(=O)NC(=O)N(C)c1nc(C)nc(OC)n1` [Tribenuron-methyl], the LC retention time was 7.94 min. For the compound `NC(=O)N1c2ccccc2C=Cc2ccccc21` [Carbamazepine], the LC retention time was 7.36 min. `CC(=O)OC1(C(C)=O)CCC2C3C=C(C)C4=CC(=O)CCC4(C)C3CCC21C` (stereo unspecified) [Megestrol-17-acetate]: the LC retention time is 10.9 min. `CC(CC(C#N)(c1ccccc1)C(C)C)N(C)C` (stereo unspecified) [Isoaminile]: the LC retention time was 5.96 min. As for `O=C(O)c1cc(N=Nc2ccc(O)c(C(=O)O)c2)ccc1O` [Olsalazine], the LC retention time is 5.66 min.

In the case of `CC(COc1ccccc1Cc1ccccc1)N1CCCCC1` (stereo unspecified) [Benproperine], the LC retention time is 8.32 min. Turning to `NC(N)=NC(N)=NCCc1ccccc1` [Phenformin], the LC retention time is 4.38 min.

Take `CC1CN(C2CCC(C#N)(c3ccc(F)cc3)CC2)CCC1(C(=O)O)c1ccccc1` (stereo unspecified) [Levocabastine]: the LC retention time was 6.95 min. The figure for `CCCc1nn(C)c2c(=O)[nH]c(-c3cc(S(=O)(=O)N4CCCCC4)ccc3OCC)nc12` [Sildenafil Norneo] is 10.9 min; for `COC(=O)COc1ccc(Cl)cc1Cl` [2.4-D-methylester] it is 9.61 min; for `CC(Cc1ccc(C(C)(C)C)cc1)CN1CC(C)OC(C)C1` (stereo unspecified) [Fenpropimorph] it is 10.7 min.

Take `NC(CC(=O)N1CCn2c(nnc2C(F)(F)F)C1)Cc1cc(F)c(F)cc1F` (stereo unspecified) [Sitagliptin]: the LC retention time is 5.08 min. For the compound `CCN(CC)CC(=O)Nc1c(C)cccc1C(=O)OC` [Tolycaine], the LC retention time was 4.59 min. On to `CC(C)Nc1nc(N)[nH]c(=O)n1` [Atrazine-desethyl-2-hydroxy (=Prometon-Hydroxy-Desisopropyl)], for which the LC retention time is 3.16 min. As to `Cn1sc(Cl)cc1=O` [CMI (5-Chloro-2-methyl-4-isothiazolin-3-on)], the LC retention time was 4.51 min. On to `CCCCN(CCCC)SN(C)C(=O)Oc1cccc2c1OC(C)(C)C2` [Carbosulfan], for which the LC retention time is 13.8 min. `CCOC(=O)C1(c2ccccc2)CCC=CC1N(C)C` (stereo unspecified) [Tilidine]: the LC retention time is 5.1 min. Next, `Cc1cccc(Nc2ccccc2C(=O)O)c1C` [Mefenamic acid]: 11.6 min. Next, `CN(Cc1cc(Br)cc(Br)c1N)C1CCCCC1` [Bromhexine]: 10 min; `CC(C)OC(=O)C(O)(c1ccc(Cl)cc1)c1ccc(Cl)cc1` [Chloropropylate]: 12.2 min; `CCOP(=S)(NC(C)C)Oc1ccccc1C(=O)OC(C)C` (stereo unspecified) [Isofenphos]: 11.2 min. As for `CCc1cccc(C)c1N(C(=O)CS(=O)(=O)O)C(C)COC` (stereo unspecified) [Metolachlor-ESA], the LC retention time was 7.34 min. Next, `COCC1CN=C(c2ccccc2Cl)c2cc(Br)ccc2N1C` (stereo unspecified) [Metaclazepam]: 11.6 min; `C(=Cc1ccccc1)CN1CCN(C(c2ccccc2)c2ccccc2)CC1` [Cinnarizine]: 9.86 min; `COC(=O)CCCOc1ccc(Cl)cc1Cl` [2.4-DB-methylester]: 11.3 min. In the case of `COC(=O)COc1nc(Cl)c(Cl)cc1Cl` [Triclopyr-methylester], the LC retention time is 10.4 min. Next, `CC(C)CCOc1ccc(NC(=S)Nc2ccc(OCCC(C)C)cc2)cc1` [Tiocarlide]: 13 min; `CCCCCC(=O)c1ccc(O)cc1O` [Caproylresorcinol]: 10.4 min. For the compound `CC1CCCC(C)N1NC(=O)c1ccc(Cl)c(S(N)(=O)=O)c1` (stereo unspecified) [Clopamide], the LC retention time was 6.01 min.

With `CC(C)(N)Cc1ccccc1` [Phentermine], the LC retention time was 4.64 min. For `CCOP(=O)(OCC)OC(=CCl)c1ccc(Cl)cc1Cl` (mixture of isomers) [Chlorfenvinphos (E/Z) Peak 1 (Main)], the LC retention time was 11 min.

As for `Cc1cccc(C)c1NC(=O)CS(=O)(=O)O`, the LC retention time is 9.34 min. Take `COC(=O)C(C)Oc1ccc(Cl)cc1C` (stereo unspecified) [Mecoprop-methylester]: the LC retention time is 10.6 min.
